Measurements reported in patent US20220282217A1, “COMPOSITIONS AND METHODS FOR PREPARING T CELL COMPOSITIONS AND USES THEREOF” (priority 2019, published 2022).
Where two headings read alike, the source gives them in different places. Where a SMILES comes first, the peptide text is derived from it.

Molecular target: HLA-A02.01 (Homo sapiens, UniProt P04439, D140Y/D185E/D98H/E176V/E277Q/G131W/G231S/I119V/I121R/I166T/I218V/L300P/L318F/N151K/N90K/P208A/P217A/Q86G/Q94H/R138H/R169H/T345S)
Assay: Class I MHC peptide binding affinity (displacement of radiolabeled reference peptide)
Conditions: allele A02.01, (nM))
Outline: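 MHC class I complexes were loaded with a radiolabeled reference peptide, then exposed to test peptides over a range of concentrations for 2 days. Reference peptide still bound to the complexes was quantified by size-exclusion gel filtration.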

[1] = read-out: Observed Affinity (IC50

| SMILES | IC50 [1] | IC50 (Observed Affinity (IC50) |
| --- | --- | --- |
| CC[C@H](C)[C@H](NC(=O)[C@@H](N)Cc1ccccc1)C(=O)N[C@@H](CC(C)C)C(=O)N[C@@H](CCSC)C(=O)N[C@@H](CCC(=O)O)C(=O)N[C@@H](CC(C)C)C(=O)N[C@@H](CCSC)C(=O)N[C@@H](C)C(=O)NCC(=O)NCC(=O)O (H-FILMELMAGG-OH; N-terminus and C-terminus assumed) | 1580 nM | – |
| CC[C@H](C)[C@H](N)C(=O)N[C@H](C(=O)N[C@@H](CO)C(=O)N[C@@H](CCCNC(=N)N)C(=O)N[C@H](C(=O)N[C@@H](CC(C)C)C(=O)N[C@@H](CC(C)C)C(=O)N[C@@H](CC(C)C)C(=O)N[C@H](C(=O)O)C(C)C)[C@@H](C)O)C(C)C (H-IVSRTLLLV-OH; N-terminus and C-terminus assumed) | 12.7 nM | – |
| CC[C@H](C)[C@H](NC(=O)[C@H](CCSC)NC(=O)[C@@H](NC(=O)CNC(=O)[C@@H](NC(=O)[C@@H](N)CCC(N)=O)[C@@H](C)O)C(C)C)C(=O)N[C@@H](CS)C(=O)N[C@@H](C)C(=O)N[C@@H](Cc1ccc(O)cc1)C(=O)N[C@@H](CC(C)C)C(=O)O (H-QTGVMICAYL-OH; N-terminus and C-terminus assumed) | 9760 nM | – |
| CC[C@H](C)[C@H](N)C(=O)N[C@H](C(=O)N[C@H](C(=O)N[C@@H](CCC(=O)O)C(=O)N[C@@H](Cc1ccccc1)C(=O)N[C@@H](CCSC)C(=O)N[C@H](C(=O)N[C@@H](Cc1ccc(O)cc1)C(=O)NCC(=O)N[C@@H](CC(N)=O)C(=O)O)[C@@H](C)O)[C@@H](C)CC)[C@@H](C)CC | – | 1550 nM |
| CC[C@H](C)[C@H](NC(=O)[C@H](CCC(N)=O)NC(=O)[C@@H](N)CO)C(=O)N[C@@H](CCSC)C(=O)N[C@@H](CO)C(=O)N[C@@H](CC(C)C)C(=O)N[C@@H](Cc1c[nH]c2ccccc12)C(=O)NCC(=O)N[C@@H](CC(C)C)C(=O)O | 62 nM | – |
| CSCC[C@H](NC(=O)[C@H](CCCCN)NC(=O)CNC(=O)[C@H](CC(N)=O)NC(=O)[C@H](CCC(N)=O)NC(=O)[C@@H](N)Cc1ccccc1)C(=O)N[C@@H](C)C(=O)N[C@@H](CC(C)C)C(=O)N[C@@H](CO)C(=O)N[C@@H](C)C(=O)O | 6160 nM | – |
| CC[C@H](C)[C@H](NC(=O)[C@@H]1CCCN1C(=O)[C@H](CCCNC(=N)N)NC(=O)[C@H](Cc1c[nH]cn1)NC(=O)[C@@H]1CCCN1C(=O)[C@H](CS)NC(=O)[C@H](CCCNC(=N)N)NC(=O)[C@H](CCC(=O)O)NC(=O)[C@H](CC(C)C)NC(=O)[C@@H](N)C(C)C)C(=O)O | 15300 nM | – |
| CC[C@H](C)[C@H](N)C(=O)N[C@@H](C)C(=O)N[C@@H](CC(N)=O)C(=O)N[C@@H](CC(C)C)C(=O)N[C@@H](CC(C)C)C(=O)NCC(=O)N[C@@H](C)C(=O)N[C@@H](CS)C(=O)N[C@H](C(=O)N[C@H](C(=O)O)[C@@H](C)CC)[C@@H](C)O (H-IANLLGACTI-OH; N-terminus and C-terminus assumed) | 6420 nM | – |
| CC(C)C[C@H](NC(=O)[C@@H](N)CC(C)C)C(=O)N[C@@H](CCC(N)=O)C(=O)N[C@H](C(=O)N[C@H](C(=O)N[C@@H](CCC(N)=O)C(=O)N[C@H](C(=O)N[C@@H](CO)C(=O)N[C@@H](Cc1ccccc1)C(=O)N[C@@H](C)C(=O)O)[C@@H](C)O)[C@@H](C)O)C(C)C (H-LLQVTQTSFA-OH; N-terminus and C-terminus assumed) | 677 nM | – |
| CC(C)C[C@H](NC(=O)[C@H](CC(C)C)NC(=O)[C@H](CC(=O)O)NC(=O)[C@H](CO)NC(=O)[C@H](CC(C)C)NC(=O)[C@@H]1CCCN1C(=O)[C@@H](NC(=O)[C@@H](NC(=O)[C@@H](N)CC(N)=O)C(C)C)C(C)C)C(=O)O (H-NVVPLSDLL-OH; N-terminus and C-terminus assumed) | 916 nM | – |
| CC[C@H](C)[C@H](NC(=O)[C@@H](NC(=O)[C@@H](NC(=O)[C@H](CC(C)C)NC(=O)[C@@H](NC(=O)[C@@H]1CCCN1C(=O)CNC(=O)CNC(=O)[C@@H](NC(=O)[C@@H](N)[C@@H](C)O)[C@@H](C)CC)[C@@H](C)O)C(C)C)[C@@H](C)CC)C(=O)O (H-TIGGPTLVII-OH; N-terminus and C-terminus assumed) | 10700 nM | – |
| CC[C@H](C)[C@H](NC(=O)[C@H](CC(C)C)NC(=O)[C@@H](N)CS)C(=O)N[C@H](C(=O)N[C@@H](CO)C(=O)N[C@@H](CCCNC(=N)N)C(=O)N[C@H](C(=O)N[C@@H](CC(C)C)C(=O)N[C@@H](CC(C)C)C(=O)N[C@@H](CC(C)C)C(=O)O)[C@@H](C)O)C(C)C | 2010 nM | – |
| CSCC[C@H](N)C(=O)N[C@@H](CO)C(=O)N[C@H](C(=O)N[C@@H](CS)C(=O)N[C@@H](Cc1ccccc1)C(=O)N[C@@H](Cc1ccccc1)C(=O)N[C@@H](Cc1ccccc1)C(=O)N[C@@H](Cc1ccccc1)C(=O)N[C@@H](CO)C(=O)N[C@H](C(=O)O)C(C)C)C(C)C (H-MSVCFFFFSV-OH; N-terminus and C-terminus assumed) | 1710 nM | – |
| CC[C@H](C)[C@H](NC(=O)[C@@H]1CCCN1C(=O)[C@H](CCCNC(=N)N)NC(=O)[C@H](CCC(N)=O)NC(=O)[C@H](CC(N)=O)NC(=O)[C@H](CCSC)NC(=O)CN)C(=O)N[C@@H](CC(C)C)C(=O)N[C@H](C(=O)O)[C@@H](C)O (H-GMNQRPILT-OH; N-terminus and C-terminus assumed) | 3030 nM | – |
| CC(C)C[C@H](NC(=O)[C@H](C)NC(=O)[C@H](CC(C)C)NC(=O)[C@H](CC(C)C)NC(=O)[C@@H](N)Cc1ccccc1)C(=O)N[C@@H](Cc1c[nH]c2ccccc12)C(=O)N[C@@H](CCC(=O)O)C(=O)N[C@@H](CS)C(=O)N[C@@H](CO)C(=O)O (H-FLLALWECS-OH; N-terminus and C-terminus assumed) | 93.2 nM | – |
| CC(C)C[C@H](NC(=O)[C@H](CCCNC(=N)N)NC(=O)[C@@H](N)C(C)C)C(=O)N[C@@H](CO)C(=O)N[C@@H](CO)C(=O)N[C@@H](CS)C(=O)N[C@H](C(=O)N1CCC[C@H]1C(=O)N[C@H](C(=O)N[C@@H](C)C(=O)O)C(C)C)C(C)C (H-VRLSSCVPVA-OH; N-terminus and C-terminus assumed) | 1210 nM | – |
| CC[C@H](C)[C@H](NC(=O)[C@@H](N)CC(C)C)C(=O)N[C@H](C(=O)N[C@@H](CO)C(=O)N[C@@H](CCCNC(=N)N)C(=O)N[C@H](C(=O)N[C@@H](CC(C)C)C(=O)N[C@@H](CC(C)C)C(=O)N[C@@H](CC(C)C)C(=O)N[C@H](C(=O)O)C(C)C)[C@@H](C)O)C(C)C (H-LIVSRTLLLV-OH; N-terminus and C-terminus assumed) | 10900 nM | – |
| CC[C@H](C)[C@H](NC(=O)[C@@H](NC(=O)[C@@H](NC(=O)[C@@H](N)Cc1ccc(O)cc1)[C@@H](C)CC)[C@@H](C)CC)C(=O)N[C@@H](CCC(=O)O)C(=O)N[C@@H](Cc1ccccc1)C(=O)N[C@@H](CCSC)C(=O)N[C@H](C(=O)N[C@@H](Cc1ccc(O)cc1)C(=O)NCC(=O)O)[C@@H](C)O (H-YIIIEFMTYG-OH; N-terminus and C-terminus assumed) | – | 186 nM |
| CC[C@H](C)[C@H](NC(=O)[C@@H](NC(=O)[C@H](CC(C)C)NC(=O)[C@@H](N)Cc1ccc(O)cc1)C(C)C)C(=O)N[C@@H](CCC(N)=O)C(=O)N[C@@H](CC(C)C)C(=O)N[C@@H](CCC(N)=O)C(=O)N[C@@H](CC(=O)O)C(=O)N[C@@H](CCCCN)C(=O)N[C@@H](Cc1ccccc1)C(=O)O (H-YLVIQLQDKF-OH) | 2060 nM | – |
| CC(C)C[C@H](NC(=O)[C@H](C)N)C(=O)N[C@@H](Cc1ccccc1)C(=O)N[C@@H](Cc1ccccc1)C(=O)N[C@@H](Cc1ccccc1)C(=O)N[C@@H](Cc1ccccc1)C(=O)N[C@@H](Cc1ccccc1)C(=O)N[C@@H](CCC(=O)O)C(=O)N[C@H](C(=O)O)[C@@H](C)O (H-ALFFFFFET-OH; N-terminus and C-terminus assumed) | 471 nM | – |
